This passage reports MIC90 and MIC50 results from ChEMBL document CHEMBL5614415, “Recent advances and challenges of revolutionizing drug-resistant tuberculosis treatment” (Eur J Med Chem, 2024).

Values after ≈ are worked out from the molar mass of the structure shown.

What is called MIC90 is the lowest concentration that inhibits either 90% of growth or 90% of the strains tested, depending on the study. The MIC50 is the lowest concentration that inhibits either 50% of growth or 50% of the strains tested, depending on the study.

The first experiment concerns Mycobacterium tuberculosis. Nature of the experiment: Antibacterial activity against fluoroquinolone-resistant Mycobacterium tuberculosis H37Rv assessed as reduction in bacterial growth measured after 16 to 18 hrs by serial dilution method. It is filed as functional. Particulars: time 16-18 hrs.
As to `COc1c(N2CCNC(C)C2)c(F)cc2c(=O)c(C(=O)O)cn(C3CC3)c12` (stereo not drawn) [GATIFLOXACIN], the MIC90 amounted to 0.06 µg/mL (≈ 0.16 µM).

The test system of the next experiment is Mycobacterium tuberculosis. The experiment can be described thus: Antitubercular activity against Multi-drug resistant Mycobacterium tuberculosis assessed as inhibition of bacterial growth incubated for 14 days by broth microdilution method. It is filed as functional. The following applies: 336 h, time 14 day. Background: In broth dilution the organism is exposed to a series of concentrations in liquid medium.
On to `COc1ncccc1Nc1cc2nc3ccccc3n(-c3ccc(OC(F)(F)F)cc3)c-2c/c1=N\C1CCC(OC)CC1` (stereo not drawn), for which the MIC50 worked out at 0.06 µg/mL (≈ 0.102 µM).

On to `CC(C)/N=c1\cc2n(-c3ccc(Cl)cc3)c3ccccc3nc-2cc1Nc1ccc(Cl)cc1` [CLOFAZIMINE], for which the MIC50 is 0.12 µg/mL (≈ 0.253 µM).

A further experiment deals with Mycobacterium tuberculosis. The experiment can be described thus: Antimycobacterial activity against extensively drug resistant Mycobacterium tuberculosis assessed as reduction in microbial growth. It is filed as functional.
Details: not given
As for `Cl.NC[C@H]1OB(O)c2c(OCCO)ccc(Cl)c21`, the MIC50 turned out to be 0.023 µg/mL.

Consider `COc1ccc(Br)c2c1B(O)O[C@@H]2CN`, for which the MIC50 came out at 0.1 µg/mL.

Take `NC[C@@H]1OB(O)c2c(OCCO)ccc(Br)c21`: the MIC50 came out at 10 µg/mL.

In the case of `CCCOc1ccc(Br)c2c1B(O)O[C@@H]2CN`, the MIC50 came to 0.38 µg/mL.

On to `CCCCOc1ccc(Cl)c2c1B(O)O[C@@H]2CN`, for which the MIC50 worked out at 0.6 µg/mL.

For the compound `CCCOc1ccc(Cl)c2c1B(O)O[C@@H]2CN`, the MIC50 came out at 0.16 µg/mL.

On to `COc1ccc(Cl)c2c1B(O)O[C@@H]2CN`, for which the MIC50 is 0.1 µg/mL.

For the compound `CCOc1ccc(Cl)c2c1B(O)O[C@@H]2CN`, the MIC50 was determined as 0.3 µg/mL.

Turning to `NC[C@@H]1OB(O)c2c(OCCO)ccc(Cl)c21`, the MIC50 worked out at 5 µg/mL.

In the case of `NC[C@H]1OB(O)c2c(OCCO)ccc(Br)c21`, the MIC50 amounted to 0.08 µg/mL.

Regarding `NCC1OB(O)c2c(OCCc3ccccc3)ccc(Cl)c21` (stereo not drawn), the MIC50 came out at 5 µg/mL.

Regarding `NCC1OB(O)c2c(OCc3ccccc3)ccc(Cl)c21` (stereo not drawn), the MIC50 was determined as 5 µg/mL.

In the case of `CCCCOc1ccc(Br)c2c1B(O)O[C@@H]2CN`, the MIC50 came out at 0.45 µg/mL.

For `CCOc1ccc(Br)c2c1B(O)O[C@@H]2CN`, the MIC50 came out at 0.4 µg/mL.

For the compound `NCC1OB(O)c2c(Oc3ccccc3)ccc(Cl)c21` (stereo not drawn), the MIC50 is 5 µg/mL.
